{"source": "paper PMC11396746", "about": "“Stability Evaluation and Pharmacokinetic Profiling of Vepdegestrant in Rodents Using Liquid Chromatography–Tandem Mass Spectrometry” (Molecules, 2024)", "key": {"[1]": {"experiment": "Stability of vepdegestrant in mouse plasma under storage conditions (method validation)", "assay_type": "in vitro ADME", "protocol": "(§1) The results were within ±15% RE under all storage conditions, including at room temperature for 6 h, after three freeze–thaw cycles, at −20 °C for 4 weeks, and in an autosampler for 24 h after sample preparation.\n(§2) Stability was tested for vepdegestrant in biological samples at LQC and HQC under specific conditions: Short-term stability at room temperature for 6 h, three freeze–thaw cycles, long-term stability at −20 °C for 4 weeks, and pretreated samples in an autosampler for 24 h. The stability test was performed via five replicates analysis, with the acceptance criteria being an RE within ±15% at LQC and HQC levels."}, "[2]": {"experiment": "Stability of vepdegestrant in rat plasma under storage conditions (method validation)", "assay_type": "in vitro ADME", "protocol": "as §1, §2"}, "[3]": {"experiment": "pH stability in buffer solutions (pH 2-10) and PBS pH 7.4", "assay_type": "physicochemical", "conditions": "for vepdegestrant remaining: 2 h, 0.1 µg/mL", "protocol": "The physicochemical stability of vepdegestrant was determined using various pH buffers (pH 2.0–10.0) and plasma and microsomes.\nA solution of vepdegestrant in methanol (10 µL) was added to buffer solutions at pH 2, 4, 6, 8, and 10 or pH 7.4 PBS (490 µL), yielding a final concentration of 0.1 µg/mL, and incubated at 37 °C, with 100 rpm in a water bath. At 0, 0.5, 1, and 2 h post-incubation, the incubation mixture (50 µL) was transferred to microtubes containing ice-cold ACN solution (200 µL) with IS to terminate the reaction. The mixture was vortexed thoroughly for 10 min. Subsequently, the supernatant (100 µL) was taken, and 5 µL was injected for HPLC-MS/MS analysis."}, "[4]": {"experiment": "Metabolic stability in mouse liver microsomes", "assay_type": "in vitro ADME", "conditions": "60 min, 1 μM, with NADPH", "protocol": "The metabolic stability of vepdegestrant was evaluated using liver microsomes obtained from mice, rats, dogs, and humans. Vepdegestrant was dissolved in DMSO to prepare a stock solution with a concentration of 0.1 mM. Microsomes (25 µL) were spiked into PBS (440 µL) and pre-incubated for 5 min. After pre-incubation, vepdegestrant stock solution (5 µL) was added, followed by an NADPH regenerating system (27 µL) to initiate the reaction. The composition of the reaction mixture was as follows: Vepdegestrant (final concentration 1 µM), mouse, rat, dog, human liver microsomes (protein concentration: 1 mg/mL), NADPH regenerating system (final concentrations: 1.3 mM NADP^+, 3.3 mM glucose-6-phosphate, 0.4 U/mL glucose-6-phosphate dehydrogenase, and 3.3 mM magnesium chloride), and PBS (pH 7.4). At 5, 15, 30, and 60 min after starting the reaction, aliquots (50 µL) were taken and added to ice-cold ACN with an IS (200 µL) to terminate the reaction. For the zero-time samples, aliquots were taken before adding NADPH. Subsequently, the mixture was vigorously mixed for 10 min and centrifuged at 17,054 g under 25 °C for 10 min. For analysis, 5 µL of the supernatant was injected into the HPLC-MS/MS system. In addition, the stability of vepdegestrant in rat liver microsomes was assessed in the absence of NADPH or NADPH and microsomes (PBS only). […]"}, "[5]": {"experiment": "Pharmacokinetic study in male SD rats", "assay_type": "in vivo", "conditions": "rat", "protocol": "Twelve healthy male ICR mice (6 weeks old, 27.5–30.5 g) and 10 healthy male Sprague–Dawley (SD) rats (7 weeks old, 195.5–212.0 g) were acquired from Orient Bio Inc. (Seongnam, Republic of Korea) and used for PK studies. The animals were kept in rooms in a temperature range of 20–25 °C, humidity of 40–60%, and a 12-h light/dark cycle. Before the experiment, mice were fasted for 4 h, whereas rats were fasted for 14 h, with only water provided during the fasting period. After 4 h of drug administration, animals were provided with free access to food and water. All animal experiments were approved by the Institutional Animal Care and Use Committee of the Chungnam National University (202310A-CNU-178; Daejeon, Republic of Korea).\nFor the PK studies in rats, a vepdegestrant dosing solution was prepared using a combination of DMSO, PEG 400, cremophor EL, and saline (5:40:2.5:52.5, v/v/v/v). The dosages were set at 2 and 5 mg/kg for IV and PO, respectively, consistent with mouse PK studies. The dose volumes were 2 and 5 mL/kg IV and PO, respectively. Blood samples (100 µL) were collected from the jugular vein using heparinized syringes at 0.08 (IV only), 0.25, 0.5, 1, 2, 4, 8, and 24 h post vepdegestrant administration. Blood samples were immediately centrifuged at 12,032 g under 25 °C for 5 min, and plasma aliquots (20 μL) were stored at −20 °C until HPLC-MS/MS analysis.\nThe collected plasma samples from mice or rats (20 µL) were added with IS (20 µL) and ACN (160 µL). Subsequently, the mixture was vigorously mixed for 10 min and centrifuged at 17,054× g under 25 °C for 10 min. An aliquot of the supernatant (100 μL) was taken, and a volume of 5 μL was injected for HPLC-MS/MS analysis. PK parameters were calculated using Phoenix® 8.3 software (Certara L.P., Princeton, NJ, USA), as described previously."}, "[6]": {"conditions": "1 month at −20 °C, nominal 3 ng/mL"}, "[7]": {"conditions": "1 month at −20 °C, nominal 900 ng/mL"}, "[8]": {"conditions": "6 h at room temperature (25 °C), nominal 3 ng/mL"}, "[9]": {"conditions": "6 h at room temperature (25 °C), nominal 900 ng/mL"}, "[10]": {"conditions": "Freeze–thaw three-cycle (−20 °C → RT), nominal 3 ng/mL"}, "[11]": {"conditions": "Freeze–thaw three-cycle (−20 °C → RT), nominal 900 ng/mL"}, "[12]": {"conditions": "Processed sample in 10 °C autosampler for 24 h, nominal 3 ng/mL"}, "[13]": {"conditions": "Processed sample in 10 °C autosampler for 24 h, nominal 900 ng/mL"}, "[14]": {"conditions": "male, Sprague-Dawley, plasma, IV 2 mg/kg"}, "[15]": {"conditions": "male, Sprague-Dawley, plasma, PO 5 mg/kg"}}, "note": "Where two headings read alike, the source gives them in different places."}
{"smiles": "O=C1CC[C@H](N2Cc3cc(N4CCN(CC5CCN(c6ccc([C@@H]7c8ccc(O)cc8CC[C@@H]7c7ccccc7)cc6)CC5)CC4)ccc3C2=O)C(=O)N1", "note": "[vepdegestrant, Vepdegestrant]", "values": [{"measurement": "Stability in Mouse Plasma", "setting": "[1]; [6]", "value": "103.1 ± 5.4", "unit": "%"}, {"measurement": "Stability in Mouse Plasma", "setting": "[1]; [7]", "value": "107.7 ± 4.0", "unit": "%"}, {"measurement": "Stability in Mouse Plasma", "setting": "[1]; [8]", "value": "97.70 ± 4.12", "unit": "%"}, {"measurement": "Stability in Mouse Plasma", "setting": "[1]; [9]", "value": "110.7 ± 2.8", "unit": "%"}, {"measurement": "Stability in Mouse Plasma", "setting": "[1]; [10]", "value": "99.78 ± 1.60", "unit": "%"}, {"measurement": "Stability in Mouse Plasma", "setting": "[1]; [11]", "value": "103.3 ± 4.1", "unit": "%"}, {"measurement": "Stability in Mouse Plasma", "setting": "[1]; [12]", "value": "104.0 ± 7.2", "unit": "%"}, {"measurement": "Stability in Mouse Plasma", "setting": "[1]; [13]", "value": "98.49 ± 8.79", "unit": "%"}, {"measurement": "Stability in Rat Plasma", "setting": "[2]; [6]", "value": "98.83 ± 12.58", "unit": "%"}, {"measurement": "Stability in Rat Plasma", "setting": "[2]; [7]", "value": "104.3 ± 8.5", "unit": "%"}, {"measurement": "Stability in Rat Plasma", "setting": "[2]; [8]", "value": "100.3 ± 7.1", "unit": "%"}, {"measurement": "Stability in Rat Plasma", "setting": "[2]; [9]", "value": "99.59 ± 4.12", "unit": "%"}, {"measurement": "Stability in Rat Plasma", "setting": "[2]; [10]", "value": "98.70 ± 7.09", "unit": "%"}, {"measurement": "Stability in Rat Plasma", "setting": "[2]; [11]", "value": "94.98 ± 1.40", "unit": "%"}, {"measurement": "Stability in Rat Plasma", "setting": "[2]; [12]", "value": "99.86 ± 0.84", "unit": "%"}, {"measurement": "Stability in Rat Plasma", "setting": "[2]; [13]", "value": "92.18 ± 6.32", "unit": "%"}, {"measurement": "half-life at 0.1 µg/mL", "setting": "[3]; PBS pH 7.4, pH 7.4 (PBS), 37 °C", "value": 0.5, "unit": "h"}, {"measurement": "half-life at 0.1 µg/mL", "setting": "[3]; pH 2 buffer solution, pH 2, 37 °C", "value": 7.35, "unit": "h"}, {"measurement": "vepdegestrant remaining", "setting": "[3]; pH 2 buffer, 37 °C", "value": 82.6, "unit": "%"}, {"measurement": "half-life at 0.1 µg/mL", "setting": "[3]; pH 4 buffer solution, pH 4, 37 °C", "value": 0.77, "unit": "h"}, {"measurement": "vepdegestrant remaining", "setting": "[3]; pH 4–10 buffers, 37 °C", "value": "2.25–12.8%"}, {"measurement": "half-life at 0.1 µg/mL", "setting": "[3]; pH 6 buffer solution, pH 6, 37 °C", "value": 0.4, "unit": "h"}, {"measurement": "half-life at 0.1 µg/mL", "setting": "[3]; pH 8 buffer solution, pH 8, 37 °C", "value": 0.38, "unit": "h"}, {"measurement": "half-life at 0.1 µg/mL", "setting": "[3]; pH 10 buffer solution, pH 10, 37 °C", "value": 0.6, "unit": "h"}, {"measurement": "remaining percentage of unconverted vepdegestrant", "setting": "[4]", "value": 106, "unit": "%"}, {"measurement": "Cmax", "setting": "[5]; [14]", "value": "850 ± 95", "unit": "ng/mL"}, {"measurement": "MRT", "setting": "[5]; [14]", "value": "4.14 ± 0.348", "unit": "h"}, {"measurement": "Tmax", "setting": "[5]; [14]", "value": 0.083, "unit": "h"}, {"measurement": "clearance", "setting": "[5]; [14]", "value": 17.6, "unit": "mL/min/kg"}, {"measurement": "half-life", "setting": "[5]; [14]", "value": "3.97 ± 0.284", "unit": "h"}, {"measurement": "Cmax", "setting": "[5]; [15]", "value": "108 ± 38", "unit": "ng/mL"}, {"measurement": "MRT", "setting": "[5]; [15]", "value": "6.54 ± 0.965", "unit": "h"}, {"measurement": "Tmax", "setting": "[5]; [15]", "value": "3.2 ± 2.95", "unit": "h"}, {"measurement": "half-life", "setting": "[5]; [15]", "value": "4.07 ± 0.418", "unit": "h"}, {"measurement": "bioavailability", "setting": "[5]; male, Sprague-Dawley, plasma, PO 5 mg/kg vs IV 2 mg/kg, read-out: BA (oral bioavailability)", "value": "24.1 ± 9.39", "unit": "%"}, {"measurement": "Vd", "setting": "[5]; male, Sprague-Dawley, plasma, intravenous, 2 mg/kg, read-out: volume of distribution", "value": "> 1", "unit": "L/kg"}, {"measurement": "Vd", "setting": "[5]; male, Sprague-Dawley, plasma, iv, 2 mg/kg, IV 2 mg/kg, read-out: Vss", "value": "4.43 ± 0.3", "unit": "L/kg"}, {"measurement": "AUCinf", "setting": "[5]; IV 2 mg/kg", "value": "1900 ± 90", "unit": "ng·h/mL"}, {"measurement": "AUClast", "setting": "[5]; IV 2 mg/kg", "value": "1880 ± 84", "unit": "ng·h/mL"}, {"measurement": "Vss", "setting": "[5]; IV 2 mg/kg, 2 mg/kg", "value": "4.354 ± 0.3", "unit": "L/kg"}, {"measurement": "AUCinf", "setting": "[5]; PO 5 mg/kg", "value": "1150 ± 446", "unit": "ng·h/mL"}, {"measurement": "AUClast", "setting": "[5]; PO 5 mg/kg", "value": "1120 ± 428", "unit": "ng·h/mL"}, {"measurement": "clearance as % of liver blood flow", "setting": "[5]; liver blood flow 3.3 L/h/kg", "value": "approximately 31.9%"}]}
